Literature values as cited in patent publication US7943666B2, “Esters of capsaicin for treating pain” (Trinity Laboratories, Inc., priority 2006, dated 2011).

Tests used:
[1] = rats, i.v. administration
[2] = 540 mg per day orally for 30 days plus topical as needed; arthritis not responding to NSAIDs

| Time to distribution to brain, spinal cord, liver and blood [1] | Structure (SMILES) | Individuals improved [2] |
| --- | --- | --- |
| ≤ 20 min | COc1cc(CNC(=O)CCCCC=CC(C)C)ccc1O [capsaicin, 8-methyl-N-vanillyl-6-nonenamide] |  |
|  | CCCC/C=C\CCCCCCCC(=O)OCCCCCCCCCCCCCCCC [cetyl myristoleate, cis-9-cetyl myristoleate] | 63.5% |
